Results published in patent publication US5958966A, “Treatment of aberrant cellular states with biomodulators” (University of New Mexico, priority 1995, dated 1999).
“Also recorded” adds a separate entry of the source. Where two headings read alike, the source gives them in different places.

How the values were obtained:
[1] = system: human colon carcinoma cell line (LS-174); assay: generation time of LS-174 human colon carcinoma cells; format: cell-based; settings: for Tg: control 26.5
Description: The procedure of Example VA, above, was repeated except a human colon carcinoma cell line (LS-174) was used instead of the canine glioma cell line.
(§1) Mean of triplicate determinations. LS-174 cells (human colon carcinoma) were grown under conditions to promote exponential growth characteristics; 2×10^5 cells in a T-25 flask. The cells were harvested every 72 hours after the controls had reached approximately 85% confluency. The drug was added at the initiation of culture in DMSO, the control cultures had just DMS0. The drug concentration was adjusted with DMSO so that the final concentration of DMS0 was always 0.5%.

[2] = system: human peripheral blood leukocytes (HPBL); assay: stimulation / inhibition of IgG production in HPBL; format: cell-based; settings: for activation at 0.1 µM: Homo sapiens, Leukocyte, 90 h
Description: Human peripheral blood leukocytes were cultured in a standard tissue culture medium. Aliquots of these cultured cells (1,000,000 cells/ml medium) were cultured for 6 hours, and the specified amount of Formula II compound was added; the cells were then cultured for an additional 90 hours. Sheep red blood cells (SRBC) conditioned with class-specific (IpG) goat anti-human antiserum (1:400) for 2 hours; then guinea pig complement (2%) for 2 hours were conjugated to Protein A as described in detail in Radioimmunoimaging and Radioimmunotherapy, Eds. S. W. Burchiel and B. A. Rhodes, Elsevier Science Publishing; New York, 1983, pp. 125-127, incorporated herein by reference.

Canine glioma cells = assay: generation time of canine glioma cells (Formula II compound); format: cell-based; settings: for Tg: control 18.6
Description: The cells were harvested every 72 hours after the controls had reached 85% confluency. Generation time (Tg) was determined as the number of hours required for the cell population to double.
as §1, with “determinations. Canine glioma” for “determinations. LS-174”, “cells” for “cells (human colon carcinoma)”, “characteristics; 2×10^5cells” for “characteristics; 2×10^5 cells”, “just DMSO.” for “just DMS0.”, “with DMS0” for “with DMSO”

canine glioma tumors = canine glioma tumors in nude rats; format: in vivo, nude rat
Description: C57 BL/6 mice were injected I.M. with B-16 melanoma cells, maintained in culture in the right flank or shoulder. Tumor growth was monitored on a daily basis by physical measurement and by MRI/MRS on a weekly basis. Treatment routes were via intraperitoneal injection using various CAD between 1 μg and 0.001 μg per animal on a M, W, F injection schedule. The animals were terminated by CO2 when the tumors had become 1.0 cm in diameter. Lung metastases were counted.
Various biomodulators were tested in vivo for their effects on canine glioma tumors established and monitored as above for mice, but in nude rats.
The histology stain toluidine blue is in the lower right hand position for orientation.

P-815 mastocytoma cells = assay: P-815 cytotoxic T lympholysis / cell mediated lympholysis; format: cell-based, mouse; settings: hydrocortisone 2 mg day -2; hydroxyurea 10^-5 M
Description: In this case the P-815 is injected into the H-2 incompatible host and in the Brunner and Cerotini model an antigen specific lympholysis event occurs with an optimum on day 11 at an effector/target ratio of 100:1 with 30% lysis. If the spleens of the injected animals are removed on day three there is no observable cytotoxicity; however, if the spleen cells are treated with biomodulator (in this case PWM at 100 ng) there is an enormous increase in the cytotoxicity event. […] Our model involves at least seven point cytotoxicity curves and for comparison purposes we calculate the slope, intercept and correlation coefficients, and then use that data for further analyses. The slope represents a measure of the efficiency of kill and in the biomodulator treated cells is approximately […] versus 0.24 for the control antigen driven response on day 11. This represents a seven fold increase in simple cytotoxicity efficiency. […]
P 815 mastocytoma cells are grown in culture or as an ascites (DBA H-2/d) and injected into C57BL/6J mice (H-2/b). […] The specificity of the response is assessed by testing the cytotoxicity against EL-4 cells ([…]) which are NK insensitive and histoincompatible with the original target. […]
Seven effector/target ratios are tested and the percent lysis calculated. […]

canine glioma (CG) cells = assay: cell surface oligosaccharide display of canine glioma cells (lectin binding, Scatchard, Gibb's Free Energy); format: cell-based
Excerpt: Taken together these affinity differences account for almost 10 kcal of additional binding energy retrievable from interactions in the case of the IMR-90s which is unavailable to the CGs. […] This treatment regimen results in an increase in the Tg of the cells as well as changes in the proton linewidth of unfrozen water (shown below). […] This display more closely resembles that of the growth regulated IMR-90s. It should be noted that the actual lines on these figures are visual estimates however, the data in the boxes are calculated values. It is these values that are used to estimate the GFE for comparison purposes.
The cell surface oligosaccharide display was assessed by methods developed previously. In brief, cells from a sub-culturing were aliquotted into 96 well trays at 5×10^5 cells per ml, 100 μL aliquots. After 16 hours of culture the cells were washed, fixed, and blocked with 0.1% BSA/PBS. Optimal lectin concentrations (5 μg/ml)were used to give 80 to 90% saturation of the available sites. Three carbohydrate ligands at 10 μg concentrations in triplicate or quadruplicate were then used to prepare competition curves for the lectin binding. The Bound over Free (B/F) ratio was calculated and the Ligand microprocessor program was used to determine the optimal fit of the data to a polynomial generated model. The Gibb's Free Energy (GFE) was calculated from the Scatchard data on the competition assay by the following equation: GFE=-RT 1n Kequit. The proton NMR linewidth measurements were conducted as described previously.

canine glioma = canine glioma implanted in dog brain (Formula II / TF compounds); format: in vivo
Description: Canine glioma was implanted surgically into the brains of four outbred dogs (2×10^6 cells). This procedure normally causes death by tumor growth in 14-28 days. […]
Tumor progress was assessed at weekly intervals by NMR, employing GdDTPA as imaging agent. This method illuminates vascularization at the surface of the tumor, and provides images which correlate well with neuropathological observations.

HPBL / IMR-90 cells = assay: biomodulator assay; format: cell-based, human
Excerpt: a. Biomodulators cause, at a concentration in the general range of 100 pM-1 μm, the differentiation of lymphocytes. This differentiation can be detected by, for example, the increased production of specific and non-specific antibodies in response to the presence of biomodulator in the culture medium, e.g., according to the HPBL method discussed above in C, or the alteration in the class of antibodies being produced by a cell line, e.g., from IgM to IgG, e.g., according to the method disclosed in the same reference.
b. Biomodulators cause, at a concentration in the general range of 100 pM-1 μm, the alteration of the cell surface oligosaccharide display of IMR-90 cells in culture as discussed in A. above.
Activity in both of these assays is a necessary and sufficient measure of whether or not a given substance is a biomodulator, as defined herein.

[3] = system: T-independent antigen (TNP-Ficoll) response; assay: in vivo humoral response to TNP-Ficoll (plaque assay); parameters: species or system mouse; settings: mice
Description: In this case both IgM and IgG hapten specific responses were recorded as well as non-antigen specific plaque responses (Ig-PFC) using a Protein A coated red blood cell target.
The TNP-Ficoll antigen is administered as the SRBC antigen was above, by i.p. injection and the response assessed by conjugating the TNP hapten directly to the SRBC target, thus obviating any potential "carrier" effect. […] In this case, a third experimental parameter has been added to the study, the production of non-specific immunoobulin (Ig-PFC). This parameter provides information on the general status of the humoral response regardless of antigen specificity. The TNP-Ficoll antigen does elicit a modest Ig-PFC response but little if any IgG specific response. […] In this case there is a very large specific and non-specific augmentation.

[4] = 10 nM, 12 × 4 h (so in the source)
[5] = pre-treated, 10 ng/kg I.P. M, W, F
[6] = 1 ng/kg I.P. begun same day as implantation

What does the source list for CC(C)OC(=O)C[C@H](O)C[C@@H](O)/C=C/c1c(C(C)C)nc(-c2ccccc2)n1-c1ccc(F)cc1 (relative stereo) [Compound IIe']?
% Change (Tg) [1, 4]: 414%; Tg [1, 4]: 109.6 h; % Change (Tg) ([1]; 10 nM, 72 × 2 h): 400%; Tg ([1]; 10 nM, 72 × 2 h): 106.2 h; % Change (Tg) ([1]; 10 nM, 72 × 3 h): 416%; Tg ([1]; 10 nM, 72 × 3 h): 110.3 h; % Change (Tg) ([1]; 10 nM, 72 h): 320%; prolongation of generation time ([1]; three passages, 10 nM): 4.16 fold; generation time after drug withdrawal ([1]; two passages, data not shown): returned to control levels; Stimulation of IgG Production ([2]; 1&100 nM): 1990%; IgG production in words ([2]; HPBL): stimulated IgG production; activation at 0.1 µM ([2]; lower concentrations (100 nM), read-out: enhancement of IgG production): < 350%; % Change (Tg) (Canine glioma cells; 10 nM, 72x2 h): 129%; Tg (Canine glioma cells; 10 nM, 72x2 h): 24.0 h; % Change (Tg) (Canine glioma cells; 10 nM, 72x3 h): 180%; Tg (Canine glioma cells; 10 nM, 72x3 h): 33.4 h; % Change (Tg) (Canine glioma cells; 10 nM, 72x4 h): 155%; Tg (Canine glioma cells; 10 nM, 72x4 h): 28.9 h; % Change (Tg) (Canine glioma cells; 10 nM, 72 h): 136%; contact inhibition (Canine glioma cells; cells approaching confluency): showed evidence of contact inhibition as the cells approached confluency; slowing of the growth rate (Canine glioma cells; three passages, 10 nM): 1.8 fold

CC(C)OC(=O)C[C@H](O)C[C@H](O)/C=C/c1c(C(C)C)nc(-c2ccccc2)n1-c1ccc(F)cc1 [HHD-3] was tested. Which “effect on tumor growth” value (canine glioma tumors) did it give?
Its value is “showed no regression effect, just delay of the control growth pattern”.

CC(C)OC(=O)C[C@H](O)C[C@@H](O)/C=C/c1c(C(C)C)nc(-c2ccccc2)n1-c1ccc(F)cc1 [HHD-7] was tested. Which “effect on tumor growth” value (canine glioma tumors) did it give?
The value was “showed the best regression”.

For C[C@]12CCC(=O)C=C1CC[C@@H]1[C@@H]2[C@@H](O)C[C@@]2(C)[C@H]1CC[C@]2(O)C(=O)CO [Hydrocortisone], which “influence on the biomodulator effect on CML” value (P-815 mastocytoma cells) is on record?
Its value is “reduced the biomodulator effect”.

For NC(=O)NO [Hydroxyurea], which “influence on the biomodulator effect on CML” value (P-815 mastocytoma cells) is on record?
The value was “does not inhibit the biomodulator effect on CML”.

CC(C)OC(=O)C[C@H](O)C[C@H](O)/C=C/c1c(C(C)C)nc(-c2ccccc2)n1-c1ccc(F)cc1 [IId] was tested. Which activation at 0.1 µM ([2]; 100 nM, read-out: Stimulation of IgG Production) did it give?
The activation at 0.1 µM was 320%.

Which “exposure time for increase in GFE” value (canine glioma (CG) cells) does the source give for O[C@H]1[C@H]2[C@H](O)CCCN2C[C@H]1O [Swainsonine (Sw)] here?
The value was “approximately 300 hours”.

Which results are given for CC(C)c1nc(-c2ccccc2)n(-c2ccc(F)cc2)c1/C=C/[C@H](O)C[C@H](O)CC(=O)O [TF-002]?
later tumor status (canine glioma; later studies, data not shown): free of tumor; day of appearance of small tumor (canine glioma; [5]): 12 days; tumor regressed by day (canine glioma; [5]): ≤ 19 days

With CC(C)c1c(/C=C/C(O)CC(O)CC(=O)O)n(-c2ccc(F)cc2)c2ccccc12 (stereo not drawn) [TF-004] as the molecule, how does the “complete regression by day” value (canine glioma; [6]) read?
Its value is at most 21 days.

What about the “substantial regression by day” value (canine glioma; [6]) of the same molecule?
Its value is at most 15 days.

And the “complete regression by day” value (canine glioma; treatment begun on Day 11)?
The value was at most 30 days.

And the “substantial regression by day” value (canine glioma; treatment begun on Day 11)?
The value was at most 21 days.

With Cc1c(/C=C/C(O)CC(O)CC(=O)O)ccc2c1C(O)CC(C)C2 (stereo not drawn) [colletruncoic acid] as the molecule, how does the biomodulator activity (HPBL / IMR-90 cells) read?
The biomodulator activity was “has been shown to have biomodulator activity”.

For Dextran, which “PFC response to TNP-Ficoll” value [3] is on record?
The value was “some stimulatory effect; also recorded: marked cellular proliferation but little differentiative response”.
